Assay results from patent publication US7863312B2, “Pyrazolidinone compounds as ligands of the prostaglandin EP2 and/or EP4 receptors” (Merck Serono SA, priority 2001, dated 2011).
pEC50, pKi: −log10 of the molar value.

Legend:
EP4 receptor = EP4 receptor (Homo sapiens, UniProt P35408); assay: EP4 receptor binding assay (3H-PGE2 SPA); settings: EP4 receptor membranes, 20 nM 3H-PGE2, pH 6.0, 2 hrs room temperature
Procedure: Compounds of the invention were tested in an EP4 receptor binding assay of the following protocol.

EP2 receptor = EP2 receptor (Homo sapiens, UniProt P43116); assay: EP2 receptor binding assay (3H-PGE2 SPA); settings: EP2 receptor membranes, 20 nM 3H-PGE2, pH 6.0, 2 hrs room temperature
Sequence of EP2 receptor (P43116 whole entry): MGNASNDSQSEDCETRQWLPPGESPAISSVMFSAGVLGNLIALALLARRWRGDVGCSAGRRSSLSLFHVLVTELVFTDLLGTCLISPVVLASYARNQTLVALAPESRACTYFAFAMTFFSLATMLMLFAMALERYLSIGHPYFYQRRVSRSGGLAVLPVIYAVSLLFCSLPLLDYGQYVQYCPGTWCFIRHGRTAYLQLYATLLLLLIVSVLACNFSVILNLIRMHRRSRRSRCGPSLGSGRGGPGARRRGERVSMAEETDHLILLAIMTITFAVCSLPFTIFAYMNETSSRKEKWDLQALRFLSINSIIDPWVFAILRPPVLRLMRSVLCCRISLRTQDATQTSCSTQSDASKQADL
Procedure: Compounds of the invention were tested in an EP2 receptor binding assay of the following protocol. As referred to herein, the term a “standard EP2 receptor binding assay” designates the following protocol.

[1] = biological target: T1, HEK293-EBNA cells transfected with pCEP4-hEP2 receptors (Homo sapiens, UniProt P43116); assay: EP2 cAMP assay; type: cell-based; settings: total cAMP, 1 hour 37° C.
T1 construct: expressed in transfected cells; host or cells: HEK293-EBNA
T1 sequence (P43116 whole entry): as above
Procedure: (§1) Compounds of the invention were tested in a total cAMP assay as follows. HEK293-EBNA cells transfected with pCEP4-hEP2 receptors were seeded in 96 well opaque plate (Costar #3917) at 4×10^4 cells per well in 100 μl of culture medium (D-MEM/F12 supplemented with 10% FBS, […] L-glutamine, and 250 μg/ml of hygromycin; all from GibcoBRL) and incubated at 37° C. After overnight incubation, the medium was removed from each well and replaced with 45 μl of assay medium consisted of phenol red free D-MEM/F-12, 0.1% BSA (GibcoBRL) and 0.1 mM3-isobutyl-1-methyl-xanthine (Sigma). After 15 minutes of incubation at 37° C., 16-16-dimethyl PGE-2 or compounds at desired concentrations in 20 μl of assay medium were added to cells and further incubated at 37° C. for 1 hour. Total cAMP (intra- and extra-cellular) was measured by using a cAMP-screen ELISA System (Tropix, #CS1000).

[2] = biological target: T2, HEK293-EBNA cells transfected with pCEP4-hEP4 receptors (Homo sapiens, UniProt P35408); assay: EP4 cAMP assay; type: cell-based; settings: total cAMP, 1 hour 37° C.
T2 construct: expressed in transfected cells; host or cells: HEK293-EBNA
T2 sequence (P35408 whole entry): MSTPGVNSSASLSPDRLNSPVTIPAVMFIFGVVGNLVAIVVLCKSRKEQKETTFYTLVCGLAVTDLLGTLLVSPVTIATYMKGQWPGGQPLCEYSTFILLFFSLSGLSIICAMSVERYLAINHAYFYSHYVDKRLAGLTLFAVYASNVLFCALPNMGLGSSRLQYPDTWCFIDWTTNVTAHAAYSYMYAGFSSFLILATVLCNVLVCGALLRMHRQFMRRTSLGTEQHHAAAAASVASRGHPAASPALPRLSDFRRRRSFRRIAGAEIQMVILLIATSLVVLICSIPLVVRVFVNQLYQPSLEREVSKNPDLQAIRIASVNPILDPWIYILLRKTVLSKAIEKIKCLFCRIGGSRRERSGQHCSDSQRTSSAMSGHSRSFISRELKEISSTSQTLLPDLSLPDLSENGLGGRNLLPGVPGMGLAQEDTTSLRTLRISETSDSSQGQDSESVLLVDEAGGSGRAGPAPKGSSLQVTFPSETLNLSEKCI
Procedure: as §1, with “pCEP4-hEP4” for “pCEP4-hEP2”, “compounds of the invention” for “compounds”
In Table II, the tested compound is identified both by the corresponding synthetic Example number above as well as structure of the tested compound.

Sequence of EP4 receptor (P35408 whole entry): as above

pKi (EP4 receptor) | pKi (EP2 receptor) | pEC50 [1] | pEC50 [2] | Compound
6.42 |  |  |  | O=C(O)c1ccc(CCN2C(=O)CCN2CCC(O)Cc2ccc3c(c2)OCO3)cc1 (centres unmarked) [Example 28, 4-(2-{2-[4-(1,3-benzodioxol-5-yl)-3-hydroxybutyl]-5-oxopyrazolidin-1-yl}ethyl)benzoic acid]
 | < 4.30 | < 4.30 |  | CCCCCC(O)C#CCN1CCC(=O)N1CCc1ccc(C(=O)O)cc1 (centres unmarked) [Example 2, 4-{2-[2-(4-hydroxynon-2-ynyl)-5-oxopyrazolidin-1-yl]ethyl}benzoic acid]
 | 4.69 | 5.00 |  | CC(C)CCC(C)(O)CCCN1CCC(=O)N1CCc1ccc(C(=O)O)cc1 (centres unmarked) [Example 11, 4-{2-[2-(4-hydroxy-4,7-dimethyloctyl)-5-oxopyrazolidin-1-yl]ethyl}benzoic acid]
7.03 | 5.29 |  |  | CC(c1ccccc1)C(O)CCN1CCC(=O)N1CCc1ccc(C(=O)O)cc1 (stereo in doubt) [Example 30, 4-(2-{2-[(4R)-3-hydroxy-4-phenylpentyl]-5-oxopyrazolidin-1-yl}ethyl)benzoic acid]
7.44 | 5.20 |  |  | O=C(O)c1ccc(CCN2C(=O)CCN2CCC(O)Cc2cccc(F)c2)cc1 (centres unmarked) [Example 25, 4-(2-{2-[4-(3-fluorophenyl)-3-hydroxybutyl]-5-oxopyrazolidin-1-yl}ethyl)benzoic acid]
7.17 | 5.21 |  |  | O=C(O)c1ccc(CCN2C(=O)CCN2CCC(O)Cc2ccccc2)cc1 (centres unmarked) [Example 21, 4-{2-[2-(3-hydroxy-4-phenylbutyl)-5-oxopyrazolidin-1-yl]ethyl}benzoic acid]
5.70 | 5.36 | 4.82 | 6.56 | CC(C)CC(O)CCN1CCC(=O)N1CCc1ccc(C(=O)O)cc1 (centres unmarked) [Example 12, 4-{2-[2-(3-hydroxy-5-methylhexyl)-5-oxopyrazolidin-1-yl]ethyl}benzoic acid]
5.22 | 5.56 | 5.30 |  | CCCC(C)C(O)CCN1CCC(=O)N1CCc1ccc(C(=O)O)cc1 (centres unmarked) [Example 13, 4-{2-[2-(3-hydroxy-4-methylheptyl)-5-oxopyrazolidin-1-yl]ethyl}benzoic acid]
 | 6.12 | 6.41 |  | CCC1(C(O)CCCN2CCC(=O)N2CCc2ccc(C(=O)O)cc2)CCC1 (centres unmarked) [Example 19, 4-(2-{2-[4-(1-ethylcyclobutyl)-4-hydroxybutyl}-5-oxopyrazolidin-1-yl}ethyl)benzoic acid]
7.74 | 5.24 |  |  | O=C(O)c1ccc(CCN2C(=O)CCN2CCC(O)Cc2cccc(Cl)c2)cc1 (centres unmarked) [Example 29, 4-(2-{2-[4-(3-chlorophenyl)-3-hydroxybutyl]-5-oxopyrazolidin-1-yl}ethyl)benzoic acid]
 | 5.25 | 5.85 |  | CCCCC(O)CCCN1CCC(=O)N1CCc1ccc(C(=O)O)cc1 (centres unmarked) [Example 6, 4-{2-[2-(4-hydroxyoctyl)-5-oxopyrazolidin-1-yl]ethyl}benzoic acid]
6.60 | 5.66 | 6.23 | 8.30 | CCCCCC(O)CCN1CCC(=O)N1CCc1ccc(C(=O)O)cc1 (centres unmarked) [Example 1, 4-[2-(2-(3-hydroxyoctyl)-5-oxopyrazolidin-1-yl)ethyl]benzoic acid]
 | 4.54 | 5.28 |  | CCCC(C)(O)CCCN1CCC(=O)N1CCc1ccc(C(=O)O)cc1 (centres unmarked) [Example 10, 4-{2-[2-(4-hydroxy-4-methylheptyl)-5-oxopyrazolidin-1-yl]ethyl}benzoic acid]
 | 5.18 | 4.75 |  | O=C(O)c1ccc(CCN2C(=O)CCN2CCC(O)Cc2cccc(C(F)(F)F)c2)cc1 (centres unmarked) [Example 26, 4-[2-(2-{3-hydroxy-4-[3-(trifluoromethyl)phenyl]butyl}-5-oxopyrazolidin-1-yl)ethyl]benzoic acid]
 | 5.29 | 5.68 |  | CCCC(C)C(O)CCCN1CCC(=O)N1CCc1ccc(C(=O)O)cc1 (centres unmarked) [Example 8, 4-{2-[2-(4-hydroxy-5-methyloctyl)-5-oxopyrazolidin-1-yl]ethyl}benzoic acid]
7.23 | 5.55 |  |  | O=C(O)c1ccc(CCN2C(=O)CCN2CCC(O)Cc2cccc(OC(F)(F)F)c2)cc1 (centres unmarked) [Example 24, 4-[2-(2-{3-hydroxy-4-[3-(trifluoromethoxy)phenyl]butyl}-5-oxopyrazolidin-1-yl)ethyl]benzoic acid]
7.02 | 5.15 |  |  | CC(c1ccccc1)C(O)CCN1CCC(=O)N1CCc1ccc(C(=O)O)cc1 (stereo in doubt) [Example 27, 4-(2-{2-[(4S)-3-hydroxy-4-phenylpentyl]-5-oxopyrazolidin-1-yl}ethyl)benzoic acid]
6.25 | 5.73 | 6.25 | 8.00 | CCCCCC(O)CCCN1CCC(=O)N1CCc1ccc(C(=O)O)cc1 (stereo in doubt) [Example 14, 4-{2-[2-((4S)-hydroxynonyl)-5-oxopyrazolidin-1-yl]ethyl}benzoic acid]
 | 6.21 | 6.24 |  | O=C(O)c1ccc(CCN2C(=O)CCN2CCCC(O)C2(CC3CC3)CCC2)cc1 (centres unmarked) [Example 18, 4-[2-(2-{4-[1-(cyclopropylmethyl)cyclobutyl]-4-hydroxybutyl}-5-oxopyrazolidin-1-yl)ethyl]benzoic acid]
 | 5.49 | 5.82 |  | CCCCCC(O)CCCN1CCC(=O)N1CCc1ccc(C(=O)O)cc1 (stereo in doubt) [Example 15, 4-{2-[2-((4R)-hydroxynonyl)-5-oxopyrazolidin-1-yl]ethyl}benzoic acid]
 | 6.32 | 5.80 |  | CCCCCC(C)(O)CCCN1CCC(=O)N1CCc1ccc(C(=O)O)cc1 (centres unmarked) [Example 16, 4-{2-[2-(4-Hydroxy-4-methylnonyl)-5-oxopyrazolidin-1-yl]-ethyl}-benzoic acid]
 | 6.31 | 6.34 |  | CCCCC(O)(CC)CCCN1CCC(=O)N1CCc1ccc(C(=O)O)cc1 (centres unmarked) [Example 9, 4-{2-[2-(4-ethyl-4-hydroxyoctyl)-5-oxopyrazolidin-1-yl]ethyl}benzoic acid]
 | 4.59 | 4.90 |  | CCCCCC(O)/C=C/CN1CCC(=O)N1CCc1ccc(C(=O)O)cc1 (centres unmarked) [Example 5, 4-(2-{2-[(2E)-4-hydroxynon-2-enyl]-5-oxopyrazolidin-1-yl}ethyl)benzoic acid]
 | 4.54 | 5.01 |  | CC(C)CC(O)CCCN1CCC(=O)N1CCc1ccc(C(=O)O)cc1 (centres unmarked) [Example 7, 4-{2-[2-(4-hydroxy-6-methylheptyl)-5-oxopyrazolidin-1-yl]ethyl}benzoic acid]
 | 4.76 | 5.59 |  | CCCCCC(O)/C=C\CN1CCC(=O)N1CCc1ccc(C(=O)O)cc1 (centres unmarked) [Example 4, 4-(2-{2-[(2Z)-4-hydroxynon-2-enyl]-5-oxopyrazolidin-1-yl}ethyl)benzoic acid]
5.70 | 5.61 | 5.89 |  | CCCCCC(O)CCCN1CCC(=O)N1CCc1ccc(C(=O)O)cc1 (centres unmarked) [Example 3, 4-{2-[2-(4-hydroxynonyl)-5-oxopyrazolidin-1-yl]ethyl}benzoic acid]
